Biological target: T1, PAF-Rezeptor (Homo sapiens, UniProt P25105)
T1 construct: endogenous in cells; host or cells: intact human platelets from blood of healthy donors, purified on Sepharose CL-2B
Test: [3H]PAF receptor binding on vital human platelets (competitive displacement of the radioligand)
Settings: potency of the (-)-enantiomer relative to the other enantiomer, [³H]PAF binding
Excerpt: Überraschenderweise wurde gefunden, daß das (-)-Enantiomere 40-mal wirkungsstärker ist. Die pharmakologische Wirkung wurde anhand des nachfolgenden Experiments bestimmt: [³H]PAF-Rezeptor-Bindung an vitalen humanen Blutplättchen
Bestimmt wird die konkurrierende Wechselwirkung von Prüfsubstanzen (hier PAF-Antagonisten) mit der bekannten Wechselwirkung des Radioliganden [³H]PAF zum gleichen Rezeptor. Die Bindungsstudien wurden an vitalem menschlichen Thrombozyten vorgenommen. Blutproben von gesunden Spendern wurden mit ACD-Puffer verdünnt und zentrifugiert (15 Min., 160 x g). Das blättchenreiche Plasma wird durch Chromatographie an Sepharose CL-2B [Zum Eluieren: HEPES-Puffer, pH 7,4 20°C] gereinigt.
Definierte Mengen [z.B. 800 µl] der Blättchensuspension wurden 90 Min. bei Raumtemperatur inkubiert, d.h. vermischt mit: • a) einer […] [³H]PAF-Lösung, verdünnt mit Puffer. • b) mit einer 30 pmolaren [³H] PAF-Lösung, die gleichzeitig eine µmolare (nicht markierte) PAF-Lösung enthält, • c) mit der 30 pmolaren [³H]PAF-Lösung und den Lösungen der Prüfsubstanzen (unterschiedliche Konzentrationen) • a) Dient zur Ermittlung der totalen Bindung, • b) dient zur Ermittlung der unspezifischen Bindung.
Die Reaktion wurde durch Vakuumfiltration abgestoppt. Die Filter mit den Blutplättchen werden mit Szintilationsflüssigkeit versetzt und die verbliebene Radioaktivität in einem Counter gemessen. […]

T1 sequence (P25105 whole entry): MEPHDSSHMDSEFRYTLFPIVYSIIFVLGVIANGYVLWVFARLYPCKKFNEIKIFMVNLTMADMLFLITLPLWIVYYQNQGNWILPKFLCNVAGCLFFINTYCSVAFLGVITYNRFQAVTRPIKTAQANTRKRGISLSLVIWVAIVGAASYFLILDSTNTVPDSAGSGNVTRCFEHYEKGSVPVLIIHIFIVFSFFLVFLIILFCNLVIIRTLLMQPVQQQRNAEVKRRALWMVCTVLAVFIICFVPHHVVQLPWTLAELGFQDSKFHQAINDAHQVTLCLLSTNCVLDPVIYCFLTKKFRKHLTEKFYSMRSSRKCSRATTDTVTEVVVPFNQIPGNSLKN

Cc1nnc2n1-c1sc(CCc3ccc(CC(C)C)cc3)cc1C(c1ccccc1Cl)=NC2C (single isomer, unassigned; (-)) [(-)Enantiomer, (-)-4-(2-Chlorphenyl)-2-[2-(4-isobutylphenyl)ethyl]-6,9-dimethyl-6H-thieno[3,2-f][1,2,4]triazolo[4,3-a][1,4]diazepin]
wirkungsstärker: 40 mal

Reference: patent EP0428854A2, “Process for the preparation of 4-(4-isobutylphenyl)-butyraldehyde” (BOEHRINGER INGELHEIM KG, priority 1989, dated 1991)
